Data taken from publication PMC12040169 (PLOS Biology, 2025).

Assay: in vitro
Details: human, hela cells, % viability

Row | SMILES | viability at 28.5 h, 10 µM [%] | viability at 28.5 h, 10 µM (bulk resorufin, single well) [%]
1 | O=C(/C=C/c1ccco1)Nc1sc2c(c1C(=O)NCc1ccco1)CCC2 [CBK265616] | 104 | 
2 | Cc1cc(C)cc(OCc2nnc(SCC(=O)N3CCN(c4ccccc4)CC3)o2)c1 [CBK268012] | 96.7 | 
3 | CC1CCCN(C(=S)NC2CC3CCC2C3)C1 (centres unmarked) [CBK085999] | 92.7 | 
4 | COc1ccc(NC(=O)CSc2cnn[nH]2)cc1OC [CBK270010] | 102 | 
5 | Cn1ccnc1C1(O)CC2CCC(C1)N2C(=O)c1cccc(Cl)c1 (centres unmarked) [CBK284091] | 86 | 
6 | O=C(c1ccc2c(c1)N(Cc1ccccc1Cl)C(=O)CO2)c1cccs1 [CBK286411] | 94.2 | 
7 | Cn1c(Cc2csc(NC(=O)c3ccc(Cl)cc3F)n2)n[nH]c1=S [CBK296635] | 94.7 | 
8 | CCOC(=O)C1(Cc2cc(-c3ccccc3)no2)CCNCC1 [CBK284924] | 111 | 
9 | CN(C(=O)CN1CCN(c2cc(-c3cc4ccccc4o3)ncn2)CC1)c1ccccc1 [CBK091128] | 94 | 
10 | C=CCN1CCC(C(=O)NC(C)c2ccc(OC)c(OC)c2)CC1 (centres unmarked) [CBK148924] | 91.1 | 
11 | Cc1cc(OC(=O)C2CCC(CNC(=O)OC(C)(C)C)CC2)c2c3c(c(=O)oc2c1)CCCC3 (centres unmarked) [CBK083590] | 102 | 
12 | O=C(NC1CC1)C1CCN(Cn2nnc3ccccc3c2=S)CC1 [CBK306342] | 94.1 | 
13 | COC(=O)c1sccc1OCc1nnc(-c2ccc(Cl)c(Cl)c2)o1 [CBK067742] | 96.5 | 
14 | Oc1ccc(Oc2ccc(Oc3ccc(O)cc3)cc2)cc1 [CBK033968] | 107 | 
15 | O=C(Cc1ccc2c(c1)CCCC2)Nc1cccc(-c2nnn[nH]2)c1 [CBK297129] | 114 | 
16 | O=C(NCc1ccccc1Cl)C1CCCN(S(=O)(=O)c2ccccc2)C1 (centres unmarked) [CBK269086] | 92.8 | 
17 | CC(C)N(Cc1nc(-c2ccccc2)no1)C(=O)Nc1cccc(Cl)c1 [CBK269871] | 93.5 | 
18 | COc1ccc2[nH]c(SCC(=O)Nc3ccc(Br)cc3)nc2c1 [CBK263447] | 91 | 
19 | Cc1c(C(=O)N2CCC(N3CCSCC3)CC2)[nH]c2c(F)cccc12 [CBK307065] | 96.8 | 
20 | CC(NC(=O)N1CCCC(CO)C1)c1ccccc1 (centres unmarked) [CBK156066] | 87.1 | 
21 | COCc1nnc(Sc2ccc(C(F)(F)F)cn2)s1 [CBK115219] | 100 | 
22 | CS(=O)(=O)N1CCCc2cc(-c3csc(N)n3)ccc21 [CBK305859] | 86.4 | 
23 | O=C(NC[C@H]1O[C@@H](CC(=O)N2CCN(c3ccccc3)CC2)[C@H](O)[C@@H]1O)c1ccco1 [CBK288919] | 97.9 | 

Row | SMILES | viability at 28.5 h, 10 µM [%] | viability at 28.5 h, 10 µM (bulk resorufin, single well) [%]
24 | CCc1c(C)nc2ccccc2c1[S+]([O-])CCC(=O)OC (centres unmarked) [CBK155467T] | 91.8 | 
25 | Nc1ncc(-c2ccoc2)nc1NCc1ccncc1 [CBK063656] | 95.1 | 
26 | O=C1NC(=O)N(c2ccc(Cl)cc2)C(=O)/C1=C\NC(CO)(CO)CO [CBK264421] |  | 99.7
27 | CC(C)C(N)c1nnc(SCc2ccccc2Cl)o1 (centres unmarked) [CBK270121C] | 92 | 
28 | Cc1cc(NS(=O)(=O)c2cccc(C(F)(F)F)c2)n(C)n1 [CBK067244] | 94.1 | 
29 | CC(C)[C@@H](CO)Nc1nc(-c2cc(C(F)(F)F)cc(C(F)(F)F)c2)cn2ccnc12 [CBK037496] | 84.9 | 
30 | CC(O)CNCc1ccc(OCC(=O)NC(C)(C)C)cc1 (centres unmarked) [CBK270232C] | 87.1 | 
31 | Cc1nc2ccccc2c(C(=O)O)c1-c1ccccc1 [CBK274187] | 91.5 | 
32 | Cc1ccc(S(=O)(=O)N2CCN(c3nc(NC(C)c4ccccc4)c4ccccc4n3)CC2)cc1 (centres unmarked) [CBK266448] | 106 | 
33 | O=c1[nH]ccn1CCNc1ccc(-c2ccccc2Oc2ccccc2)cn1 [CBK037665] | 103 | 
34 | CC1CCc2c(sc(NC(=O)c3ccncc3)c2C(N)=O)C1 (centres unmarked) [CBK288530] | 87.8 | 
35 | N=C1S/C(=C/c2ccc(-c3ccccc3C(=O)O)o2)C(=O)N1c1nccs1 [CBK077624] | 93.9 | 
36 | C[C@]12CN(CC3CC=CCC3)C[C@H]1C(=O)Nc1ccccc1C(=O)N2 (some centres unmarked) [CBK284738] | 96.6 | 
37 | O=C(NCCc1cccs1)Nc1cc(C(F)(F)F)cc(C(F)(F)F)c1 [CBK043718] | 91.1 | 
38 | CC(Cn1cncc1-c1cnn(C)c1)Oc1ccccc1Cl (centres unmarked) [CBK281737] | 105 | 
39 | Cc1cccn2c(=O)cc(CN3CCC(CNc4ccccn4)C3)nc12 (centres unmarked) [CBK306123] | 103 | 
40 | COc1ccc(Nc2ncnc3oc(C)c(C)c23)cc1 [CBK288163] | 93.3 | 
41 | CN(CC(=O)Nc1ccc(Cl)c(C(F)(F)F)c1)C(=O)c1cc(O)nc2ccccc12 [CBK295304] | 87.8 | 
42 | CS(=O)(=O)c1ccc(-c2ccc(OCC3CCN(C(=O)c4cccc(C#N)c4)CC3)nc2)cc1 [CBK162283] | 93.3 | 
43 | CSc1ccc(-c2cn3ccnc3c(Nc3ccccc3)n2)cc1 [CBK066537] | 91.3 | 
44 | Cc1cc(C)n(CC2CCCCN2C(=O)COc2cccnc2)n1 (centres unmarked) [CBK304040] | 105 | 
45 | O=C(O)CC(C(=O)OC1CCCCC1)N1CCOCC1 (centres unmarked) [CBK265970] | 95.1 | 
46 | O=C(Nc1ccc(Cc2ccncc2)cc1)c1cc([N+](=O)[O-])n[nH]1 [CBK269157] | 99.4 | 

Row | SMILES | viability at 28.5 h, 10 µM [%] | viability at 28.5 h, 10 µM (bulk resorufin, single well) [%]
47 | OC1(c2ccc(F)cc2)CC2CCC(C1)N2Cc1ccccn1 (centres unmarked) [CBK283490] | 108 | 
48 | COCC1(C(=O)N2CC(=O)N(c3ccccc3C#N)CC2C)CCC1 (centres unmarked) [CBK307159] | 89 | 
49 | CC(=O)Nc1ccc2nc(NC(=O)c3ccc(C)cc3)sc2c1 [CBK287304] | 103 | 
50 | O=C(/C=C(\c1ccccc1)n1cncn1)c1ccc(Cl)cc1 [CBK262089] | 90.7 | 
51 | COc1cc(C)c(Cl)cc1S(=O)(=O)NCCCN1CCOCC1 [CBK269044] | 97.1 | 
52 | CSCc1ccc(C(=O)Nc2cc(C(=O)O)ccc2C)cc1 [CBK297107] | 93 | 
53 | O=C(O)CNC(=O)CN1C(=O)c2ccc(C(=O)O)cc2C1=O [CBK264080] | 90.8 | 
54 | Cc1cccc(NC(=S)N/N=C/c2sccc2C)c1 [CBK022228] | 104 | 
55 | CC(C)C(=O)N1CCCc2cc(C(O)CN3CCCCC3)ccc21 (centres unmarked) [CBK282127] | 104 | 
56 | COc1ccc(OC)c2sc(NC(=O)c3ccc(Br)s3)nc12 [CBK287400] | 93.7 | 
57 | COc1ccc(C(NC(=O)C2CCN(C(=O)OC(C)C)CC2)c2ccccc2C)cn1 (centres unmarked) [CBK059704] | 101 | 
58 | O=C(CCc1nc(-c2ccccc2F)no1)Nc1ccccc1[N+](=O)[O-] [CBK268341] | 86.9 | 
59 | COc1ccc(CC(=O)N2CCNC(=O)C2Cc2ccccc2-c2ccccc2)cc1OC (centres unmarked) [CBK285827] | 102 | 
60 | O=C(c1ccc(F)cc1)C1CCN(CC(O)COc2cccc3c2CCCC3)CC1 (centres unmarked) [CBK003583] | 101 | 
61 | CCOC(=O)c1[nH]c2ccccc2c1NC(=O)COc1ccc(Cl)cc1Cl [CBK160134] | 102 | 
62 | O=C(O)c1ccc(NCc2ccccc2OCc2ccc(F)cc2)cc1 [CBK266487] | 101 | 
63 | CCN(CC)CCCNc1oc(-c2ccc(Cl)cc2)nc1C#N [CBK265746] | 126 | 
64 | c1ccc(Oc2ccc(Nc3cccc(-c4ccc5ccccc5c4)n3)cc2)cc1 [CBK037636] | 112 | 
65 | C[C@]12CN(Cc3ccc(F)cc3)C[C@H]1NC(=O)c1ccccc1C2=O [CBK284728] | 87.8 | 
66 | CNC(=O)CC1SC(NC2CC3C=CC2C3)=NC1=O (centres unmarked) [CBK047491] | 90.7 | 
67 | CN(C)CCCNc1ccc(-c2nnc(O)c3ccccc23)cc1[N+](=O)[O-] [CBK266200] | 100 | 
68 | COCC(=O)N[C@H]1CCN2C(=O)c3cc(-c4ccccc4F)ccc3NC(=O)[C@@H]2C1 [CBK289553] | 95.6 | 
69 | Cc1onc(-c2ccccc2Cl)c1C(=O)N(C)C [CBK160325] | 102 | 

Row | SMILES | viability at 28.5 h, 10 µM [%] | viability at 28.5 h, 10 µM (bulk resorufin, single well) [%]
70 | CC(=O)Nc1ccc(CN[C@@H]2CCC[C@H]2Cc2cc(C)no2)cc1 [CBK285459] | 102 | 
71 | O=C(CC1Sc2ccccc2NC1=O)Nc1ccccc1[N+](=O)[O-] (centres unmarked) [CBK264014] | 94.8 | 
72 | CN(/N=C/c1cc(Br)cs1)c1ccc(Cl)nn1 [CBK028729] | 94.1 | 
73 | Cc1csc(NC(=O)c2cccc(S(=O)(=O)NCC3CCCO3)c2)n1 (centres unmarked) [CBK305017] | 96.7 | 
74 | CC(C)Cn1c(=O)c(C(=O)Nc2ccccc2S(N)(=O)=O)c(O)c2ccccc21 [CBK262290] | 93.1 | 
75 | CN1CCC(=NNC(=O)c2ccc(CN(c3ccccc3)S(C)(=O)=O)cc2)CC1 [CBK262728] | 97.8 | 
76 | CCCCC[C@H](O)CCC1[C@H](O)C[C@@H]2Cc3c(cccc3OCC(=O)O)C[C@H]12 (some centres unmarked) [CBK011575] | 98.3 | 
77 | CCOC(=O)C1CCN(Cn2nc(O)ccc2=O)CC1 [CBK263331] | 90.7 | 
78 | CC(=O)N(C)Cc1cccc(Nc2ncnc3c2cnn3C)c1 [CBK306319] | 95.3 | 
79 | Cc1cccc(C)c1NC(=O)CC1Sc2ccccc2NC1=O (centres unmarked) [CBK267160] | 97 | 
80 | COc1cccc(C2CC(=O)c3c(ccc4ccccc34)N2)c1OC (centres unmarked) [CBK262971] | 94.1 | 
81 | COc1ccc(/C=N/NC(=O)c2cc[nH]n2)cc1COc1ccc(Cl)cc1Cl [CBK263708] | 90.9 | 
82 | Cc1ccc(C#N)c(NCc2ccccc2CN2CCCC2CO)n1 (centres unmarked) [CBK304076] | 75.5 | 
83 | CC1CCc2nc(NC(=O)CC3CCN(C(=O)Cc4ccccc4)CC3)sc2C1 (centres unmarked) [CBK286509] | 86.4 | 
84 | O=C(CN1CCOCC1)N/N=C/c1ccncc1 [CBK019949] | 83.8 | 
85 | Cc1ccccc1C(=O)NCC(=O)NCc1csc(-c2ccccc2)n1 [CBK092334] | 91.8 | 
86 | CCNC(=O)N1Cc2nc[nH]c2C[C@H]1C(=O)NCc1ccc(OC)cc1 [CBK288973] | 115 | 
87 | Cn1c(=O)n(CC(=O)N2CCc3ccccc32)c2cccnc21 [CBK283792] | 106 | 
88 | Cc1nn(C)cc1-c1cncn1CC1(N(C)C)CCC(C)CC1 (centres unmarked) [CBK281799] | 88.9 | 
89 | CS(=O)(=O)N(CC(=O)NCc1ccccn1)c1ccc(C23CC4CC(CC(C4)C2)C3)cc1 [CBK268448] | 106 | 
